Measurements as given in ChEMBL document CHEMBL1147388, “Three new cytotoxic metabolites from the marine sponge Plakortis halichondrioides” (J Nat Prod, 1993).
Values after ≈ are worked out from the molar mass of the structure shown.

System: P388
Assay: Cytotoxicity against mouse P388 cells
Format: functional, cell-based

Row | Compound | IC50
1 | CC/C=C/C(CC)C/C(=C/C(O)(CC)CC(O)(/C=C/C(=O)O)CC)CC (centres undefined) | 10 µg/mL (≈ 27.3 µM)
2 | CC/C=C/C(CC)C/C(C)=C/C(O)(CC)CC(O)(/C=C/C(=O)O)CC (centres undefined) | 10 µg/mL (≈ 28.4 µM)
3 | CC/C=C/C(CC)CCCC1(CC)C[C@H](CC)[C@H](CC(=O)O)OO1 (relative stereo) | 0.5 µg/mL (≈ 1.47 µM)
4 | CC/C=C/C(CC)CCCC1(CC)C[C@H](CC)[C@H](CC(=O)OC)OO1 (relative stereo) | 5 µg/mL (≈ 14.1 µM)
